Results taken from patent publication US20260315462A1, “METHODS OF TREATING RELAPSING MULTIPLE SCLEROSIS USING AN INHIBITOR OF BRUTON'S TYROSINE KINASE” (Genentech, Inc., priority 2023, published 2026).
Values after ≈ are worked out from the molar mass of the structure shown.

How the values were obtained:
[1] = test system: new T1-hypointense lesions on MRI; assay: New T1-hypointense lesions on MRI, Phase II RMS study (exploratory endpoint); type: in vivo, human
Description: (§1) This Phase II study was undertaken to evaluate the effect of fenebrutinib on brain magnetic resonance imaging (MRI) in participants with RMS. Participants were randomized to receive either fenebrutinib or placebo. In addition to MRI evaluations, participants were also monitored for other clinical outcomes of disease, including disability progression and MS relapse, as described more fully below.
(§2) Study Design: This clinical trial comprised a double-blind treatment (DBT) phase, where participants were randomized in a 2:1 ratio to receive either 200 mg BID oral fenebrutinib or non-active placebo, administered for 12 weeks. Participants were directed to self-administer two 100 mg tablets in the morning and two 100 mg tablets in the evening by mouth, for a total dose of 400 mg of fenebrutinib (or placebo) every day.
(§3) A total of 109 adults aged 18-55 with RMS were enrolled in the study: 73 in the fenebrutinib arm, and 36 in the placebo arm. […] Accordingly, the analysis of outcome for the double blind phase of the study included 70 patients in the fenebrutinib arm, and 36 patients in the placebo arm.
Exploratory Endpoints: Exploratory endpoints included the total number of new T1-hypointense lesions on MRI at weeks 4, 8, and 12; the fenebrutinib concentration in CSF collected at baseline and at or after Week 12; and plasma pharmacokinetics.
Results: Exploratory Endpoint-Hypointense T1 Lesions: The number of T1 hypointense lesions was evaluated at Week 4, 8, and 12 as an exploratory endpoint. […] FIG. 4 provides bar graphs illustrating some of the data in this table and providing additional analyses. In this figure, the large arrows indicate the relative reduction (95% confidence interval) of lesions. The proportion of patients with new T1 hypointense lesions is the number of participants that have a new lesion at that specific visit alone divided by the number of participants with a scan at that specific visit alone at the indicated week. There was a 58% reduction and only 3.2% of patients with new hypointense T1 lesions at Week 12.

[2] = test system: CD63 expression on myeloid lineage cells (basophils); conditions: in vitro human whole blood assay; previously presented Weber M S, et al. AAN 2021; cited from earlier work
[3] = test system: new Gd-enhancing T1 lesions and new or enlarging T2-weighted lesions on brain MRI; assay: Proportion of participants free from any new Gd-enhancing T1 lesions and new or enlarging T2-weighted lesions on brain MRI, Phase II RMS study (secondary endpoint); type: in vivo, human
Description: as §1, §2, §3
(§4) MRI Measurements: The primary efficacy endpoint for this study was the total number of new gadolinium-enhancing T1 (T1Gd+) lesions on brain MRI measured at Weeks 4, 8, and 12 of administration. The secondary efficacy outcomes were (1) the total number of new or enlarging T2-weighted lesions on brain MRI measured at Weeks 4, 8, and 12, and (2) the proportion of participants free from any new Gd-enhancing T1 lesions and new or enlarging T2-weighted lesions observed on brain MRI at Weeks 4, 8, and 12. Radiologic evaluation for the primary efficacy parameter was performed using a standardized MRI protocol at screening, and at Weeks 4, 8, and 12 for each participant.
Results: Secondary Endpoint-Proportion of Participants Free from any new Gd+ Enhancing T1 Lesions and New or Enlarging T2-weighted Lesions at Weeks 4, 8, and 12: This secondary endpoint was also met, and a summary of the analysis provided in Table 8.

[4] = test system: BCR-dependent B-cell proliferation; conditions: in vitro cell-based experiments; cited from earlier work
[5] = test system: BTK; conditions: anti-IgM induced BTK Y223 autophosphorylation in human whole blood; previously presented Keaney J, et al. 2019; cited from earlier work
[6] = Safety: adverse events in Phase II RMS study; type: in vivo, human; conditions: for Patients with ≥1 AE, %: 200 mg BID oral, 12 weeks, placebo 33.3
Procedure: as §2, §3
Results—Safety Summary: A summary of adverse events (AEs) for patients treated with fenebrutinib, and with placebo, is provided in Table 12.

[7] = test system: new or enlarging T2-weighted lesions on brain MRI; assay: New or enlarging T2-weighted lesions on brain MRI, Phase II RMS study (secondary endpoint); type: in vivo, human
Description: as §1, §2, §3, §4
Results: Secondary Endpoint-Total Number of New or Enlarging T2-Weighted Lesions at Weeks 4, 8, and 12 combined: This secondary endpoint was met, and a summary of this secondary endpoint analysis is provided in Table 5. FIG. 3 provides bar graphs illustrating some of the data in these tables and providing additional analyses. In this figure, the large arrows indicate the relative reduction (95% confidence interval) of lesions. The proportion of patients with new/enlarging T2-weighted lesions is the number of participants that have a new lesion at that specific visit alone divided by the number of participants with a scan at that specific visit alone at the indicated week. There was a 95% reduction and only 3.2% of patients with new/enlarging lesions at Week 12.

[8] = Week 12, participants with a new lesion at that visit divided by participants with a scan at that visit
[9] = most common AEs, n = 73, placebo 0
[10] = most common AEs, n = 73, placebo 2.8

C[C@H]1CN(C2COC2)CCN1c1ccc(Nc2cc(-c3ccnc(N4CCn5c(cc6c5CC(C)(C)C6)C4=O)c3CO)cn(C)c2=O)nc1 [Fenebrutinib, (S)-2-(3′-(hydroxymethyl)-1-methyl-5-((5-(2-methyl-4-(oxetan-3-yl)piperazin-1-yl)pyridin-2-yl)amino)-6-oxo-1,6-dihydro-[3,4′-bipyridin]-2′-yl)-7,7-dimethyl-2,3,4,6,7,8-hexahydro-1H-cyclopenta[4,5]pyrrolo[1,2-a]pyrazin-1-one]
effect on T1 hypointense lesions ([1]; Week 4, 8, and 12, compared to placebo): reduced T1 hypointense lesions at all three time points | proportion of patients with new T1 hypointense lesions, Week 12 [1, 8]: 3.2% | patients with new T1 hypointense lesions after Week 4 ([1]; after Week 4 of treatment, compared to placebo): few patients had new lesions after Week 4 of treatment | Relative Reduction of T1 hypointense lesions, Week 4 ([1]; vs placebo, Week 4, 95% CI −106%, 87%): 48% | Relative Reduction of T1 hypointense lesions, Week 8 ([1]; vs placebo, Week 8, 95% CI −62%, 92%): 64% | Relative Reduction of T1 hypointense lesions, Week 12 ([1]; vs placebo, Week 12, 95% CI −131%, 92%): 58% | Relative Reduction of T1 hypointense lesions, Weeks 4, 8, and 12 ([1]; vs placebo, Weeks 4, 8, and 12, 95% CI −12%, 89%): 64% | IC90, CD63 (myeloid lineage cell activation marker) [2]: 0.0412 µg/mL (≈ 0.062 µM) | No. of patients free from T1 Gd+ and T2-weighted lesions, Week 4 ([3]; Week 4, N = 70, placebo 21 of 36): 51 | Proportion free from new T1 Gd+ and new or enlarging T2-weighted lesions, Week 4 ([3]; Week 4, N = 70, placebo 58.3%): 72.9% | No. of patients free from T1 Gd+ and T2-weighted lesions, Week 8 ([3]; Week 8, N = 67, placebo 20 of 34): 63 | Proportion free from new T1 Gd+ and new or enlarging T2-weighted lesions, Week 8 ([3]; Week 8, N = 67, placebo 58.8%): 94.0% | No. of patients free from T1 Gd+ and T2-weighted lesions, Week 12 ([3]; Week 12, N = 63, placebo 24 of 33): 61 | Proportion free from new T1 Gd+ and new or enlarging T2-weighted lesions, Week 12 ([3]; Week 12, N = 63, placebo 72.7%): 96.8% | No. of patients who are free from new T1 Gd+ and New or Enlarging T2-weighted Lesions During DBT ([3]; overall, weeks 4, 8, and 12, N = 70, placebo 18): 51 | Proportion of patients free from new T1 Gd+ and new or enlarging T2-weighted lesions, overall ([3]; overall, weeks 4, 8, and 12, N = 70, placebo 50.0%): 72.9% | Odds Ratio, adjusted (free from new T1 Gd+ and new or enlarging T2-weighted lesions) ([3]; vs placebo, weeks 4, 8, and 12, 95% CI (exact) (1.317, 13.078), p-value (exact) 0.0117): 4.005 | likelihood to be free from new T1 Gd+ lesions and new or enlarging T2-weighted lesions ([3]; weeks 4, 8, and 12, compared to placebo group): four times more likely to be free from new T1 Gd+ lesions and new or enlarging T2-weighted lesions | BCR-dependent B-cell proliferation [4]: inhibition of BCR-dependent B-cell proliferation | IC90, phospho-BTK [5]: 0.0404 µg/mL (≈ 0.0608 µM) | Patients with ≥1 AE, % ([6]; n = 73): 38.4% | Patients with ≥1 AE, % ([6]; n = 73, listed as FEN): 38% | withdrawal: abnormal hepatic transaminase levels ([6]; discontinuation required by protocol): 4 | AE grade ([6]; double-blind treatment phase): All AEs were Grade 1 or 2, except for two Grade 3 asymptomatic liver transaminase level elevations | AEs leading to withdrawal from the study ([6]; double-blind treatment phase): four AEs leading to withdrawal from the study | serious AEs or deaths ([6]; double-blind treatment phase): No SAEs were reported | serious AEs or deaths ([6]; double-blind treatment phase, listed as FEN): No serious AEs or deaths were reported | rate of infections ([6]; fenebrutinib vs placebo arms): balanced between the fenebrutinib and placebo arms | hepatic transaminase level elevations, character ([6]; fenebrutinib-treated patients): reversible and asymptomatic | withdrawal: hypersensitivity ([6]; in vivo): 1 | withdrawal: upper abdominal pain ([6]; in vivo): 1 | withdrawal: upper abdominal pain; nausea and headache ([6]; in vivo): 1 | Abnormal hepatic enzyme levels, % [6, 9]: 5.5% | Nasopharyngitis, % [6, 9]: 2.7% | Upper abdominal pain, % [6, 9]: 2.7% | Headache, % [6, 10]: 4.1% | Nausea, % [6, 10]: 2.7% | Pharyngitis, % [6, 10]: 2.7% | Urinary tract infection, % ([6]; most common AEs, n = 73, placebo 5.6): 5.5% | Patients with ≥1 AE leading to dose interruption, n (%) ([6]; n = 73): 0 | Patients with ≥1 AE with fatal outcome, n (%) ([6]; n = 73): 0 | Patients with ≥1 SAE, n (%) ([6]; n = 73): 0 | Patients with ≥1 Grade 3 AE, % ([6]; n = 73, placebo 0): 2.7% | Patients withdrawn from study due to an AE, % ([6]; n = 73, placebo 0): 9.6% | Patients with ≥1 Related AE, % ([6]; n = 73, placebo 5.6): 13.7% | Total no. of AEs ([6]; n = 73, placebo 19): 40 | Number of New or Enlarging T2-Weighted Lesions, Mean (SD), Week 4 ([7]; 200 mg BID oral, Week 4, n = 70, min-max 0-21, placebo 1.222 (2.218)): 1.043 (2.990) | Number of New or Enlarging T2-Weighted Lesions, Mean (SD), Week 8 ([7]; 200 mg BID oral, Week 8, n = 67, min-max 0-4, placebo 0.824 (1.359)): 0.104 (0.526) | Number of New or Enlarging T2-Weighted Lesions, Mean (SD), Week 12 ([7]; 200 mg BID oral, Week 12, n = 63, min-max 0-1, placebo 0.545 (1.121)): 0.032 (0.177) | Total Number of New or Enlarging T2-Weighted Lesions ([7]; 200 mg BID oral, Weeks 4, 8, and 12 combined, N = 70, 201 scans, placebo 90): 82 | New or Enlarging T2-Weighted Lesion rate, adjusted ([7]; 200 mg BID oral, Weeks 4, 8, and 12 combined, placebo 0.634): 0.168 | New or Enlarging T2-Weighted Lesion rate, unadjusted ([7]; 200 mg BID oral, Weeks 4, 8, and 12 combined, placebo 0.874): 0.408 | proportion of patients with new/enlarging T2-weighted lesions, Week 12 [7, 8]: 3.2% | Relative Reduction of New or Enlarging T2-Weighted Lesions, Week 4 ([7]; vs placebo, Week 4, 95% CI −13%, 77%): 49% | Relative Reduction of New or Enlarging T2-Weighted Lesions, Week 8 ([7]; vs placebo, Week 8, 95% CI 72%, 96%): 90% | Relative Reduction of New or Enlarging T2-Weighted Lesions, Week 12 ([7]; vs placebo, Week 12, 95% CI 77%, 99%): 95% | Rate Ratio, adjusted (new or enlarging T2-weighted lesions) ([7]; vs placebo, Weeks 4, 8, and 12 combined, 95% CI (0.128, 0.550)): 0.265 | Relative Reduction in new or enlarging T2-weighted lesions ([7]; vs placebo, Weeks 4, 8, and 12 combined, 95% CI (45.0%, 87.2%), p-value 0.0004): 73.5% | Relative Reduction of New or Enlarging T2-Weighted Lesions, Weeks 8 and 12 ([7]; vs placebo, Weeks 8 and 12): 93%
